Results taken from paper PMC9688225, “α-Lipoic Acid Derivatives as Allosteric Modulators for Targeting AMPA-Type Glutamate Receptors’ Gating Modules” (Cells, 2022).
Read-outs that look alike come from different tables or passages of the source.

What was measured:
[1] = target: T1, GluA2/3 AMPA receptor subunits (flip isoform) (Homo sapiens, UniProt P42262+P42263); assay: Whole-cell patch-clamp electrophysiology, heteromeric GluA2/3 expressed in HEK293 cells; assay type: cell-based; settings: for Amplitude (glutamate + compound): 10 mM glutamate + 12 µM compound, −60 mV, pH 7.4, 22 °C, mean ± SEM; for Amplitude (glutamate + compound) / A/AI (current with glutamate alone / current with glutamate + compound): n = 10; for A/AI (current with glutamate alone / current with glutamate + compound): 10 mM glutamate, 12 µM compound; for IC50: Hill fit; for t deact (weighted deactivation time constant) / t des (weighted desensitization time constant): glutamate + 12 µM compound; for t deact (weighted deactivation time constant): glutamate alone 2.4±0.3 ms; for t des (weighted desensitization time constant): glutamate alone 2.7±0.3 ms
T1 construct: expressed in transfected cells; host or cells: HEK293
Protocol: (§1) Up to 20 μg of high-copy plasmid DNA was prepared using the QIAGEN Plasmid Mini Kit, the tubes were then centrifuged to extract the supernatant containing the plasmid DNA, ethanol was used to wash the DNA pellet, then centrifuged again and the supernatant was carefully removed as to not disturb the pellet, finally, the pellet was air-dried, and the DNA was re-dissolved in a suitable volume of buffer, (our prior study detailed the whole DNA preparation data). The flip isoform was used in all AMPAR subunits used in this investigation. AMPAR subunits were subcloned in pRK and expressed in the human embryonic kidney cells (HEK293) (The HEK293 cell line was obtained from Sigma, Schnelldorf, Germany). IPA (Integrated Patch Amplifier) recorded HEK293 cells 36–48 h after transfection using the patch-clamp method (Sutter Instruments, Novato, CA, USA). A high-speed piezo solution switcher was installed on a double-barreled glass (theta tube) to provide solutions fast, isolate receptor responses from any network influences, and preserve, as much as possible, the postsynaptic protein machinery. Thus, inhibition was measured by comparing the current recorded when glutamate alone was administered to the current observed when glutamate plus the compound of interest was delivered to the same cell. Before administering the α-LA compounds, experiments were conducted to determine the appropriate concentration to be delivered to the cells without harming them. Dichloromethane (12 µM) effect on GluA1 and GluA2 subunits was tested to ensure that it had no effect on AMPA receptor currents (Figure S8). The effect of α-LA compounds on AMPA subunits plateaued at a concentration of 12 µM because LA inhibits AMPA receptors at low concentrations and continues to inhibit them when LA concentrations are increased by 2 µM each interval, as shown in Figure S1. The concentration increased by 2 µM each time to ensure that no cells were harmed. The cells were washed for 20 s between α-LA derivatives (12 µM), and 10 mM glutamate was supplied alone after each α-LA compound to ensure cell health. Data analysis was carried out using Igor Pro7 (Wave Metrics, inc). For both desensitization (τw des) and deactivation rates (τw deact), an exponential fit to the current decline was obtained at 95% of peak to baseline current. The weighted tau (τw) was calculated as τw = (τf × af) + (τs × as), where af and as are the amplitudes of the fast (τf) and slow (τs) exponential components, respectively. Our study detailed the experimental data set.
(§2) Data are presented as mean ± standard error of the mean (SEM). The number of samples (n = 10) refers to the total number of tested HEK293 cells. Statistical differences between the groups and the wild type were examined by One Way Analysis of Variance (ANOVA), with values of p < 0.05 being considered to indicate statistical significance: (*) p < 0.05, (**) p < 0.01, (***) p < 0.001, ns, not significant. Concentration-response relationships were fitted as composite curves using GraphPad Prism version 6.01 (GraphPad Software, San Diego, CA, USA) to the Hill equation. All results were representative of at least three independent experiments.
(§3) Figure 2 Suppression of AMPA receptor currents by α-LA compounds. Graphs (a,c,e,g) present AMPA receptor currents (pA) before and after the administration of α-LA derivatives on GluA1, GluA1/2, GluA2, and GluA2/3 subunits. While (b,d,f,h) present the ratio A/AI, where A represents the current caused by 10 mM glutamate alone and AI represents the current induced by glutamate + α-LA (12 µM). The whole-cell current was measured at −60 mV, pH 7.4, and 22 °C. A one way analysis of variance (ANOVA) was performed for comparison: *** p < 0.001; ns, not significant. Ten cells were investigated for each LA compound. All values are shown as mean SEM.
(§4) Figure 3 The potency of LA compounds against AMPA receptor subunits. […]

[2] = target: T2, GluA1/2 AMPA receptor subunits (flip isoform) (Homo sapiens, UniProt P42261+P42262); assay: Whole-cell patch-clamp electrophysiology, heteromeric GluA1/2 expressed in HEK293 cells; assay type: cell-based; settings: for Amplitude (glutamate + compound): 10 mM glutamate + 12 µM compound, −60 mV, pH 7.4, 22 °C, mean ± SEM; for Amplitude (glutamate + compound) / A/AI (current with glutamate alone / current with glutamate + compound): n = 10; for A/AI (current with glutamate alone / current with glutamate + compound): 10 mM glutamate, 12 µM compound; for IC50: Hill fit; for t deact (weighted deactivation time constant) / t des (weighted desensitization time constant): glutamate + 12 µM compound; for t deact (weighted deactivation time constant): glutamate alone 2.5±0.3 ms; for t des (weighted desensitization time constant): glutamate alone 5.3±0.4 ms
T2 construct: expressed in transfected cells; host or cells: HEK293
Protocol: as §1, §2, §3, §4

[3] = target: T3, GluA2 AMPA receptor subunit (flip isoform) (Homo sapiens, UniProt P42262); assay: Whole-cell patch-clamp electrophysiology, homomeric GluA2 expressed in HEK293 cells; assay type: cell-based; settings: for Amplitude (glutamate + compound): 10 mM glutamate + 12 µM compound, −60 mV, pH 7.4, 22 °C, mean ± SEM; for Amplitude (glutamate + compound) / A/AI (current with glutamate alone / current with glutamate + compound): n = 10; for A/AI (current with glutamate alone / current with glutamate + compound): 10 mM glutamate, 12 µM compound; for IC50: Hill fit; for t deact (weighted deactivation time constant) / t des (weighted desensitization time constant): glutamate + 12 µM compound; for t deact (weighted deactivation time constant): glutamate alone 2.4±0.1 ms; for t des (weighted desensitization time constant): glutamate alone 2.6±0.1 ms
T3 construct: expressed in transfected cells; host or cells: HEK293
Protocol: as §1, §2, §3, §4

[4] = target: T4, GluA1 AMPA receptor subunit (flip isoform) (Homo sapiens, UniProt P42261); assay: Whole-cell patch-clamp electrophysiology, homomeric GluA1 expressed in HEK293 cells; assay type: cell-based; settings: for Amplitude (glutamate + compound): 10 mM glutamate + 12 µM compound, −60 mV, pH 7.4, 22 °C, mean ± SEM; for Amplitude (glutamate + compound) / A/AI (current with glutamate alone / current with glutamate + compound): n = 10; for A/AI (current with glutamate alone / current with glutamate + compound): 10 mM glutamate, 12 µM compound; for IC50: Hill fit; for t deact (weighted deactivation time constant) / t des (weighted desensitization time constant): glutamate + 12 µM compound; for t deact (weighted deactivation time constant): glutamate alone 2.2±0.1 ms; for t des (weighted desensitization time constant): glutamate alone 2.3±0.1 ms
T4 construct: expressed in transfected cells; host or cells: HEK293
Protocol: as §1, §2, §3, §4

[5] = tested on: AMPA receptor subunits (GluA1, GluA2, GluA1/2, GluA2/3); assay: Whole-cell patch-clamp electrophysiology, summary over the AMPA receptor subunits in HEK293 cells; assay type: cell-based
Protocol: as §1, §2
The levels of inhibition of α-LA and its derivatives attracted our attention to assessing the potency of the compounds in a concentration-dependent manner. […] The concentration−inhibition curves were produced by administering glutamate alone at a concentration of 10 mM, followed by glutamate + α-LA derivatives at varying concentrations (in μM) for every recording point. Afterward, the cells were normalized back by administering glutamate alone. Since the glutamate concentration in the synaptic cleft constantly saturates the receptors, driving the response to a near maximum level, variability occurs because the maximum level changes. […]

[6] = tested on: EA.hy926 endothelial cells; set-up: method as in PMID 18026819; settings: 40–80 µM α-lipoic acid; cited from earlier work
[7] = tested on: HEK293 cells; set-up: method as in PMID 23780308; settings: 8 µM α-lipoic acid; cited from earlier work
[8] = whole-cell normalized peak amplitude, unit printed in the text, not in Table S6, read-out: IC50
[9] = all AMPA receptor subunits, 12 µM compound

T4 sequence (P42261 19-906 isoform P42261-2 limits assumed): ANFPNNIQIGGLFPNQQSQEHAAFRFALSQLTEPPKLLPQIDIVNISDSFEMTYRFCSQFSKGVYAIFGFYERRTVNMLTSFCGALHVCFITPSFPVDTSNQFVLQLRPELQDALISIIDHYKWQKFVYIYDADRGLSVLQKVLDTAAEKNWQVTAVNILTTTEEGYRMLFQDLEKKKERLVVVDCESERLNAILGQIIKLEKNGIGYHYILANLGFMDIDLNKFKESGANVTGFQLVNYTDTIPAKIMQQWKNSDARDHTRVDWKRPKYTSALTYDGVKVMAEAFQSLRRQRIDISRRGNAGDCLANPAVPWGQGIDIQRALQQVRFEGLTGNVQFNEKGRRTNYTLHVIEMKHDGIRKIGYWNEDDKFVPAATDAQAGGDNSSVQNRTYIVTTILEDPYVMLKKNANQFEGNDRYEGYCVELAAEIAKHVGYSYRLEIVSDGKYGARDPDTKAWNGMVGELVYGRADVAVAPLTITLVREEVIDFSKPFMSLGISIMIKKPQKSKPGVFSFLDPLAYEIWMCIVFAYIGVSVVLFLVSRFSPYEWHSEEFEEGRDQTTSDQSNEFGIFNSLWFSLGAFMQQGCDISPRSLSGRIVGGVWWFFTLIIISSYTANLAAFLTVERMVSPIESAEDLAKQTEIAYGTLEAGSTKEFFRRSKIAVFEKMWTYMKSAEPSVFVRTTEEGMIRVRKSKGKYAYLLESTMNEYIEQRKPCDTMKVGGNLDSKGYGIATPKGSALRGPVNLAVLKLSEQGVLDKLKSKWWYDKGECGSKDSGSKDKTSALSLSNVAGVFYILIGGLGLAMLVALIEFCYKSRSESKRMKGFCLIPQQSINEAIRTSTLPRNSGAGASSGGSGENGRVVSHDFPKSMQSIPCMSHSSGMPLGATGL
T2 sequence (P42261 19-906 isoform P42261-2 limits assumed): as above
T2 sequence (P42262 25-883 isoform P42262-2 limits assumed): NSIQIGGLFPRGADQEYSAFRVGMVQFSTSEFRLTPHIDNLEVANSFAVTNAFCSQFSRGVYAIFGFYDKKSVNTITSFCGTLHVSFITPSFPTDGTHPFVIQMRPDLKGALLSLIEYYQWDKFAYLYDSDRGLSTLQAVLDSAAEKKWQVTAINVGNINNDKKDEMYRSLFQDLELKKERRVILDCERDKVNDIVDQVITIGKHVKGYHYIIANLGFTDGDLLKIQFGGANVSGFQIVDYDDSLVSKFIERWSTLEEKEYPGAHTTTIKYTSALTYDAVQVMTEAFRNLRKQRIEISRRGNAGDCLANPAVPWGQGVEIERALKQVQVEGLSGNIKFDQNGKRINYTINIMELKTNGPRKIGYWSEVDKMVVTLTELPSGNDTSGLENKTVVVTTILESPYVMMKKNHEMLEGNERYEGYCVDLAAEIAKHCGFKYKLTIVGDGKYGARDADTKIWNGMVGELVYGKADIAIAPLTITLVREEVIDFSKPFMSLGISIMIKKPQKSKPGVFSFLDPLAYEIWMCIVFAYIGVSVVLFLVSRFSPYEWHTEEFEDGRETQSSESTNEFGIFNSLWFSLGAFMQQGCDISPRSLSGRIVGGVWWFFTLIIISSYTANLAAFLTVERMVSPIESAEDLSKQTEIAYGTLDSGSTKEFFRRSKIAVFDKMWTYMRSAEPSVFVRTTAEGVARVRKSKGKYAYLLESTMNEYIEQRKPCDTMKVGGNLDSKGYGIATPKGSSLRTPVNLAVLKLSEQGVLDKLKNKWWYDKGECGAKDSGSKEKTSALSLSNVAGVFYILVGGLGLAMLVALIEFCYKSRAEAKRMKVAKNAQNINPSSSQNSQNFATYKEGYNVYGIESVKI
T3 sequence (P42262 25-883 isoform P42262-2 limits assumed): as above
T1 sequence (P42262 25-883 isoform P42262-2 limits assumed): as above
T1 sequence (P42263 29-894 isoform P42263-2 limits assumed): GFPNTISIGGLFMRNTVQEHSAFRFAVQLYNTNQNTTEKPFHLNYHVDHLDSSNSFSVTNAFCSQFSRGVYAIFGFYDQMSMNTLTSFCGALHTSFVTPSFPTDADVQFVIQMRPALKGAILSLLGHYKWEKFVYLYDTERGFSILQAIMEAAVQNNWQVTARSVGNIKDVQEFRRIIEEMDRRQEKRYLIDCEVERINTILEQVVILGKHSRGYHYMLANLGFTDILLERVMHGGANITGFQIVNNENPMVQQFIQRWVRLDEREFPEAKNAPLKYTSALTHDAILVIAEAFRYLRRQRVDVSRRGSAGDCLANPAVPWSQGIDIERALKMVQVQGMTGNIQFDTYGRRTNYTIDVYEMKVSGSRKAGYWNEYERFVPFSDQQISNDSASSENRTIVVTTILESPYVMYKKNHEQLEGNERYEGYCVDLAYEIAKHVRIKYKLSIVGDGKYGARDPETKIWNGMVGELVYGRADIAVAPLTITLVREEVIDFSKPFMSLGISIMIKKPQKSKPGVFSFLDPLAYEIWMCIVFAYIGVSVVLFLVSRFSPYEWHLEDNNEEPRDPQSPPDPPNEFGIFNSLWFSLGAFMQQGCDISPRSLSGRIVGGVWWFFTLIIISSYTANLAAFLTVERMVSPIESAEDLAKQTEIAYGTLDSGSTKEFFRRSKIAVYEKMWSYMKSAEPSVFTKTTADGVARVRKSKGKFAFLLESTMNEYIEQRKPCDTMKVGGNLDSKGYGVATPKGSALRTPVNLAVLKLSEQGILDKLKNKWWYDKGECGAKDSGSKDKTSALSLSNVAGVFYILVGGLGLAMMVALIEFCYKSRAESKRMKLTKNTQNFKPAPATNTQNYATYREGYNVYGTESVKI

Compound	Amplitude (glutamate + compound) [1]	A/AI (current with glutamate alone / current with glutamate + compound) [1]	IC50 ([1]; read-out: Log IC50 (converted))	t deact (weighted deactivation time constant) [1]	t des (weighted desensitization time constant) [1]	IC50 [1, 8]	Amplitude (glutamate + compound) [2]	A/AI (current with glutamate alone / current with glutamate + compound) [2]	IC50 ([2]; read-out: Log IC50 (converted))	t deact (weighted deactivation time constant) [2]	t des (weighted desensitization time constant) [2]	IC50 [2, 8]	Amplitude (glutamate + compound) [3]	A/AI (current with glutamate alone / current with glutamate + compound) [3]	IC50 ([3]; read-out: Log IC50 (converted))	t deact (weighted deactivation time constant) [3]	t des (weighted desensitization time constant) [3]	IC50 [3, 8]	Amplitude (glutamate + compound) [4]	A/AI (current with glutamate alone / current with glutamate + compound) [4]	further results
O=C(CCCCC1CCSS1)OCCCCCCO (centres unmarked) [LA4, 1-Hydroxy-6-Lipoester]	72±15.0 pA	7.58±0.7	4.79 µM	6.9 ± 0.5 ms	2.0 ± 0.1 ms	4.76 µM	87±13.0 pA	7.70±0.7	4.37 µM	7.4 ± 0.4 ms	3.7 ± 0.3 ms	4.41 µM	166±28 pA	7.65±0.5	4.47 µM	7.1 ± 0.4 ms	1.9 ± 0.07 ms	4.47 µM	121±18 pA	7.79±0.5	IC50 ([4]; read-out: Log IC50 (converted)): 4.17 µM; t deact (weighted deactivation time constant) [4]: 7.5 ± 0.3 ms; t des (weighted desensitization time constant) [4]: 1.8 ± 0.1 ms; IC50 [4, 8]: 4.18 µM; decrease in the peak current of the AMPARs [5, 9]: roughly 8 fold; increase of the rate of AMPA receptor deactivation (τw deact) [5, 9]: roughly 3 fold
O=C(O)CCCCC1CCSS1 (stereo not drawn) [α-LA, alpha-Lipoic acid, reference compound]	60±11.0 pA	8.93±1.0	3.98 µM	8.6 ± 0.7 ms	1.6 ± 0.09 ms	4.01 µM	69±10.0 pA	9.13±0.9	3.89 µM	8.9 ± 0.5 ms	3.3 ± 0.3 ms	3.86 µM	136±22 pA	9.09±0.8	3.89 µM	8.8 ± 0.5 ms	1.5 ± 0.04 ms	3.93 µM	102±14.0 pA	9.26±0.6	toxicity to the cells [6]: without causing toxicity; harm to the cells [7]: without noticing any harm; IC50 ([4]; read-out: Log IC50 (converted)): 3.55 µM; t deact (weighted deactivation time constant) [4]: 9.1 ± 0.6 ms; t des (weighted desensitization time constant) [4]: 1.3 ± 0.1 ms; IC50 [4, 8]: 3.54 µM; increase of the rate of AMPA receptor deactivation (τw deact) [5, 9]: about 4 fold; reduction in the rate of desensitization (τw des) [5, 9]: 2 fold; increase of the ratio A/AI ([5]; all AMPA receptor subunits, glutamate alone vs glutamate + compound): 9 fold; IC50 ([5]; over GluA1, GluA1/2, GluA2, GluA2/3, read-out: approximate IC50 against AMPA receptor subunits): 3.5 to 4 µM
